Reference: ChEMBL document CHEMBL4325854, “Synthetic small molecules as anti-biofilm agents in the struggle against antibiotic resistance” (Eur J Med Chem, 2019)

Columns and labels:
Staphylococcus aureus [1] = experiment: Antibiofilm activity against Staphylococcus aureus ATCC 29213 at 25 ug/ml relative to control; assay type: functional
Staphylococcus aureus [2] = experiment: Antibiofilm activity against Staphylococcus aureus ATCC 29213 at 6.2 ug/ml relative to control; assay type: functional
[3] = test system: Staphylococcus epidermidis; experiment: Antibiofilm activity against Staphylococcus epidermidis at 25 ug/ml relative to control; assay type: functional
Staphylococcus aureus [4] = experiment: Antibiofilm activity against methicillin-resistant Staphylococcus aureus; assay type: functional, organism-based
Enterococcus faecalis = experiment: Antibiofilm activity against Enterococcus faecalis; assay type: functional
Staphylococcus aureus [5] = experiment: Antibiofilm activity against methicillin-resistant Staphylococcus aureus ATCC BAA-44 preformed biofilms assessed as reduction in biofilm dispersion; assay type: functional, organism-based
Staphylococcus aureus [6] = experiment: Antibiofilm activity against methicillin-resistant Staphylococcus aureus ATCC BAA-44; assay type: functional, organism-based
[7] = molecular target: Fucose-binding lectin PA-IIL (Pseudomonas aeruginosa (strain ATCC 15692 / DSM 22644 / CIP 104116 / JCM14847 / LMG 12228 / 1C / PRS 101 / PAO1), UniProt Q9HYN5); experiment: Inhibition of N-(Fluorescein-5-yl)-N'-(alpha-L-fucopyranosyl ethylen)thiocarbamide binding to Pseudomonas aeruginosa PA14 LecB after 22 to 24 hrs by fluorescence polarization assay
Staphylococcus aureus [8] = experiment: Antibiofilm activity against methicillin-resistant Staphylococcus aureus isolate 2; assay type: functional
[9] = test system: Staphylococcus epidermidis; experiment: Antibiofilm activity against Staphylococcus epidermidis; assay type: functional
Enterococcus = experiment: Antibiofilm activity against vancomycin-resistant Enterococcus; assay type: functional
Staphylococcus aureus [10] = experiment: Antibiofilm activity against methicillin-resistant Staphylococcus aureus BAA-1707; assay type: functional
Vibrio cholerae [11] = experiment: Antibiofilm activity against Vibrio cholerae assessed as inhibition of biofilm dispersion; assay type: functional, organism-based
Vibrio cholerae [12] = experiment: Antibiofilm activity against Vibrio cholerae; assay type: functional, organism-based
Sortase A = molecular target: T1, Sortase A (Staphylococcus aureus, UniProt Q9S446); experiment: Inhibition of Staphylococcus aureus SrtA
T1 sequence (Q9S446 whole entry): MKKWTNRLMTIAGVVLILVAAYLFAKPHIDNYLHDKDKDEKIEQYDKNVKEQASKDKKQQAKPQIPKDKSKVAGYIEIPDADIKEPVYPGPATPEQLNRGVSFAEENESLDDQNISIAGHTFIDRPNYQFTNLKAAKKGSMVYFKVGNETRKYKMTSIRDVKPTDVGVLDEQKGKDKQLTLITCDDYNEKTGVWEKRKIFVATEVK

Staphylococcus aureus [13] = experiment: Antibiofilm activity against Staphylococcus aureus ATCC 6538; assay type: functional, organism-based
Enterococcus faecium = experiment: Antibiofilm activity against Enterococcus faecium; assay type: functional

Chain of Fucose-binding lectin PA-IIL (Q9HYN5 1-115): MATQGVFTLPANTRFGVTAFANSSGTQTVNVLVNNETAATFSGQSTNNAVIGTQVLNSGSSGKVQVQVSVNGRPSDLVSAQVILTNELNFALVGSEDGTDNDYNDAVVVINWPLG

For `Cc1nn(C)c([N-]C(=O)c2ccc([N+](=O)[O-])cc2)c1[N+]#N`, which Activity (Staphylococcus aureus [1]) is on record?
Its Activity is 69 - 96%.

What about the Activity (Staphylococcus aureus [2]) of the same compound?
Its Activity is 86.5%.

What about the Activity [3] of the same compound?
The Activity was 69 - 96%.

What does the source list for `CCCCCCCCCCCC[N+](C)(C)CCNCC[N+](C)(C)CCCCCCCCCCCC`?
MBEC (Staphylococcus aureus [4]): 50 µM; MBEC (Enterococcus faecalis): 25 µM

`CCCCC(Cl)(Cl)C1NC(=O)/C(=C/c2ccc(C(F)(F)F)cc2)O1` (stereo not drawn) was tested. Which IC50 (Staphylococcus aureus [5]) did it give?
Its IC50 is 4.7 µM.

And the IC50 (Staphylococcus aureus [6])?
Its IC50 is 0.78 µM.

How did the IC50 [7] turn out when `Cc1cc(C)c(S(=O)(=O)NC[C@H]2O[C@@H](C)[C@@H](O)[C@@H](O)[C@@H]2O)c(C)c1` was run?
The IC50 was 0.34 µM.

`Oc1c(Br)cc(Br)c2ccc(CNc3ccc(F)cc3)nc12` was tested. Which MBEC (Staphylococcus aureus [8]) did it give?
The MBEC was 93.8 µM.

And the MBEC [9]?
Its MBEC is 5.9 µM.

What about the MBEC (Enterococcus) of the same compound?
Its MBEC is 1 µM.

What about the MBEC (Staphylococcus aureus [10]) of the same compound?
The MBEC was 7.8 µM.

Which DC50 (Vibrio cholerae [11]) does the source give for `O[C@H](c1cc(-c2cccc(S(F)(F)(F)(F)F)c2)nc2ccccc12)[C@@H]1CCCN1` here?
Its DC50 is 7.4 µM.

What about the IC50 (Vibrio cholerae [12]) of the same compound?
The IC50 was 4.4 µM.

What does the source list for `CCOC(=O)/C(=N/Nc1c(F)cccc1F)C(=O)c1cc(C)nn1CC`?
IC50 (Sortase A): 75 µM; IC50 (Staphylococcus aureus [13]): 0.9 µM

How did the MBEC (Enterococcus faecium) turn out when `CCc1cccc2nc3c(O)c(Br)cc(Br)c3nc12` was run?
The MBEC was 0.59 µM.

What about the MBEC [9] of the same compound?
Its MBEC is 2.35 µM.
